According to paper PMC8225008, “Development of Non-Ethoxypropanoic Acid Type Cryptochrome Inhibitors with Circadian Molecular Clock-Enhancing Activity by Bioisosteric Replacement” (Pharmaceuticals, 2021):

System: CYP3A
Test: Cytochrome P450 inhibition assay (cocktail method, human liver microsomes), midazolam 1'-hydroxylation
Type: in vitro ADME
Details: pooled human liver microsomes, probe midazolam (5 μM)
Procedure: The inhibitory effects of KS15 and compound 5d on the metabolism of five cytochrome P450 (P450) probe substrates were evaluated using previous methods with slight modifications. The following P450 probe substrates were used: phenacetin (100 μM) for CYP1A2, tolbutamide (100 μM) for CYP2C9, omeprazole (20 μM) for CYP2C19, dextromethorphan (5 μM) for CYP2D6, and midazolam (5 μM) for CYP3A. Incubation mixtures containing pooled human liver microsomes (HLMs, XTreme 200, XenoTech, Lenexa, KS, USA), P450 probe substrates, and KS15 or compound 5d (final concentrations: 0, 0.5, 2, 5, 20, and 50 μM) were preincubated for 5 min at 37 °C. […] After centrifugation at 18,000× g (5 min, 4 °C), supernatant aliquots were analyzed by liquid chromatography-tandem mass spectrometry (LC-MS/MS). […]
All metabolites and IS were separated on a Kinetex C18 column (100 mm × 2.1 mm, 2.6 μm ID., Phenomenex, Torrance, CA, USA) and analyzed using an LC-MS/MS system (LCMS 8060, Shimadzu, Tokyo, Japan) equipped with an electrospray ionization (ESI) interface. […]
The EC50 values for luciferase reporter assay were calculated based on a logistic four-parametric equation using the mean values of intrinsic activation (SigmaPlot 10.0; Systat Software Inc., San Jose, CA, USA). […] Pharmacokinetic parameters were calculated using non-compartmental analysis (WinNonlin v.8.3; Pharsight, Mountain View, CA, USA). […]

- IC50 at 10 min: > 50 µM
SMILES: COC(=O)COc1cccc(C(C)=NOCc2ccc([N+](=O)[O-])cc2)c1 [Compound 5d, Methyl 2-(3-(1-(((4-nitrobenzyl)oxy)imino)ethyl)phenoxy)acetate]
